# Source: the kinase profiling compilation of Christmann-Franck et al. (2016)
# What was measured:
# Test in all cases: KINOMEscan competition binding
# Conditions in all cases: compound 10.0 µM
# ROS1 (human) = ROS1 (human) (UniProt P08922)
# MKNK2 (human) = MKNK2 (human) (UniProt Q9HBH9)
# NEK2 (human) = NEK2 (human) (UniProt P51955)
# PIM1 (human) = PIM1 (human) (UniProt P11309)
# NTRK1 (human) = NTRK1 (human) (UniProt P04629)
# RIPK2 (human) = RIPK2 (human) (UniProt O43353)
# ROCK2 (human) = ROCK2 (human) (UniProt O75116)
# MARK3 (human) = MARK3 (human) (UniProt P27448)
# AURKB (human) = AURKB (human) (UniProt Q96GD4)
# PIK3CB (human) = PIK3CB (human) (UniProt P42338)
# CSK (human) = CSK (human) (UniProt P41240)
# SIK1 (human) = SIK1 (human) (UniProt P57059)
# PRKCD (human) = PRKCD (human) (UniProt Q05655)
# DCLK1 (human) = DCLK1 (human) (UniProt O15075)
# CDK19 (human) = CDK19 (human) (UniProt Q9BWU1)
# FLT3 (human) = FLT3 (human) (UniProt P36888)
# TTK (human) = TTK (human) (UniProt P33981)
# INSRR (human) = INSRR (human) (UniProt P14616)
# MUSK (human) = MUSK (human) (UniProt O15146)
# MAP2K3 (human) = MAP2K3 (human) (UniProt P46734)
# PIM2 (human) = PIM2 (human) (UniProt Q9P1W9)
# MAPK1 (human) = MAPK1 (human) (UniProt P28482)
# MYLK2 (human) = MYLK2 (human) (UniProt Q9H1R3)
# FRK (human) = FRK (human) (UniProt P42685)
# PAK6 (human) = PAK6 (human) (UniProt Q9NQU5)
# AKT2 (human) = AKT2 (human) (UniProt P31751)
# SRPK2 (human) = SRPK2 (human) (UniProt P78362)
# MAPKAPK2 (human) = MAPKAPK2 (human) (UniProt P49137)
# KDR (human) = KDR (human) (UniProt P35968)
# ULK2 (human) = ULK2 (human) (UniProt Q8IYT8)
# PAK3 (human) = PAK3 (human) (UniProt O75914)
# IKBKB (human) = IKBKB (human) (UniProt O14920)
# MAPKAPK5 (human) = MAPKAPK5 (human) (UniProt Q8IW41)
# CAMK2G (human) = CAMK2G (human) (UniProt Q13555)
# GSK3B (human) = GSK3B (human) (UniProt P49841)
# MAPK4 (human) = MAPK4 (human) (UniProt P31152)
# LTK (human) = LTK (human) (UniProt P29376)
# PRKD1 (human) = PRKD1 (human) (UniProt Q15139)
# BMPR2 (human) = BMPR2 (human) (UniProt Q13873)
# CSNK2A2 (human) = CSNK2A2 (human) (UniProt P19784)
# TAOK3 (human) = TAOK3 (human) (UniProt Q9H2K8)
# MAPKAPK2 (human), sequence (P49137 whole entry, looked up): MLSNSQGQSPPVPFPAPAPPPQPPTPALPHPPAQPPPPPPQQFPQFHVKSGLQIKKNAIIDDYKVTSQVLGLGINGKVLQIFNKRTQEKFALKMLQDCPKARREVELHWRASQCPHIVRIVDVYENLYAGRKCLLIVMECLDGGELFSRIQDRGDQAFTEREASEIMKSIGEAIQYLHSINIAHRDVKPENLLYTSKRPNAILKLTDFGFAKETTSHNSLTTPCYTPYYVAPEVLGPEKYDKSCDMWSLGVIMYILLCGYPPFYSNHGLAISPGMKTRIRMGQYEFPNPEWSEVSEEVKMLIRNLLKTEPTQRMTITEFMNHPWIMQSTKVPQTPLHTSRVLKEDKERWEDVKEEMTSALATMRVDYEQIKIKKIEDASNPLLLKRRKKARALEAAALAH
# DCLK1 (human), sequence (O15075 whole entry, looked up): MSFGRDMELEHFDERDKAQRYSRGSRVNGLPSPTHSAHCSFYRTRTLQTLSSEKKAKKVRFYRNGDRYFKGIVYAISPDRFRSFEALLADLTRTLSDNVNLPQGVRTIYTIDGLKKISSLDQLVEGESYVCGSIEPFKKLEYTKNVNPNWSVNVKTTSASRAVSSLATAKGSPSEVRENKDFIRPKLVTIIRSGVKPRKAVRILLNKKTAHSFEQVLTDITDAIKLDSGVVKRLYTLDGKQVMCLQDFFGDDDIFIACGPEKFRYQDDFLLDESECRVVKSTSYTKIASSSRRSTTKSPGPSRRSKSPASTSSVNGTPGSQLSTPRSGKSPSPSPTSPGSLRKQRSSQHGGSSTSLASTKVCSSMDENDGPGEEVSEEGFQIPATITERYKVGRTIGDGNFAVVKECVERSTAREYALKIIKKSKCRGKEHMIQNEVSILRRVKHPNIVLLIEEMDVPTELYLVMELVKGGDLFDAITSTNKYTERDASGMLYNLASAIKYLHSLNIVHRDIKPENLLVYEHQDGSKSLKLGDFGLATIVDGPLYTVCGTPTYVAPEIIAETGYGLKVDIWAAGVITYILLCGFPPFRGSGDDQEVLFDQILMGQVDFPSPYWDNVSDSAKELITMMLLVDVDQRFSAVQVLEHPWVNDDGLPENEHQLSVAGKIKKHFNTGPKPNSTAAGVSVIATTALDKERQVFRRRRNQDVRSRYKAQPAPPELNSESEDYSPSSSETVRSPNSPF
# ROCK2 (human), sequence (O75116 whole entry, looked up): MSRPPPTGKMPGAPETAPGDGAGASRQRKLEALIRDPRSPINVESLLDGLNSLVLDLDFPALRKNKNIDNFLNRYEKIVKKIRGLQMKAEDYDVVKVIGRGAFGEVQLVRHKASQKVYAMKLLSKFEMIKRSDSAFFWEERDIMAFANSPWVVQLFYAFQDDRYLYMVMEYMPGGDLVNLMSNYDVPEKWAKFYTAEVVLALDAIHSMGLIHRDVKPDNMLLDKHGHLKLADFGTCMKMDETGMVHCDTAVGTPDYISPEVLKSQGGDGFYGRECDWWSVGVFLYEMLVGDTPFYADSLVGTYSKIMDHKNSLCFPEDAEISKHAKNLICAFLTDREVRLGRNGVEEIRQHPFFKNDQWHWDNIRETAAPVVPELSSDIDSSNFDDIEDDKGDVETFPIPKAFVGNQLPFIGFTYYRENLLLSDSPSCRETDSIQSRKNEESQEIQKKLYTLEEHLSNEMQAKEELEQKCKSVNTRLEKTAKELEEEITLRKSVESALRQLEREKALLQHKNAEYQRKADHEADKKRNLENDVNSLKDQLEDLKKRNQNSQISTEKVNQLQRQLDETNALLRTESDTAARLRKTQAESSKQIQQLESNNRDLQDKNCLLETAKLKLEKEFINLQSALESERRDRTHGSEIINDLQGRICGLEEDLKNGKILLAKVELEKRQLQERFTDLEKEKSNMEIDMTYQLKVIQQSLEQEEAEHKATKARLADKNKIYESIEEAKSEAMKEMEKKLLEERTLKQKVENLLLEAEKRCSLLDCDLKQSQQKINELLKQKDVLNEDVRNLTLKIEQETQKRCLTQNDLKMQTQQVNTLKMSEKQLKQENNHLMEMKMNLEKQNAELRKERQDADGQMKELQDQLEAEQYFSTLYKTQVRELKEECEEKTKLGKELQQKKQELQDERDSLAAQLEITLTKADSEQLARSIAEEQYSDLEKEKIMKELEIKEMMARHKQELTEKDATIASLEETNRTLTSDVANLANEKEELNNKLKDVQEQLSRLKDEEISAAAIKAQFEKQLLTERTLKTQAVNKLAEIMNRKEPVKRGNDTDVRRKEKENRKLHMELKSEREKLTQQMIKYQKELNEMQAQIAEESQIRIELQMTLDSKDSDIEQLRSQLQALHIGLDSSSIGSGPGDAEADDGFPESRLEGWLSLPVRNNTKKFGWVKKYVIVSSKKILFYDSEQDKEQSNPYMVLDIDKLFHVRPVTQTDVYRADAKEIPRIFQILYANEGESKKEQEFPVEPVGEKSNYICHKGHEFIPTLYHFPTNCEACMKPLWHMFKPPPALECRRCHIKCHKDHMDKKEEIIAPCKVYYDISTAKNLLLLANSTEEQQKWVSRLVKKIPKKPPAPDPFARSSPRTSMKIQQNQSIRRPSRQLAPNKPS
# SIK1 (human), sequence (P57059 whole entry, looked up): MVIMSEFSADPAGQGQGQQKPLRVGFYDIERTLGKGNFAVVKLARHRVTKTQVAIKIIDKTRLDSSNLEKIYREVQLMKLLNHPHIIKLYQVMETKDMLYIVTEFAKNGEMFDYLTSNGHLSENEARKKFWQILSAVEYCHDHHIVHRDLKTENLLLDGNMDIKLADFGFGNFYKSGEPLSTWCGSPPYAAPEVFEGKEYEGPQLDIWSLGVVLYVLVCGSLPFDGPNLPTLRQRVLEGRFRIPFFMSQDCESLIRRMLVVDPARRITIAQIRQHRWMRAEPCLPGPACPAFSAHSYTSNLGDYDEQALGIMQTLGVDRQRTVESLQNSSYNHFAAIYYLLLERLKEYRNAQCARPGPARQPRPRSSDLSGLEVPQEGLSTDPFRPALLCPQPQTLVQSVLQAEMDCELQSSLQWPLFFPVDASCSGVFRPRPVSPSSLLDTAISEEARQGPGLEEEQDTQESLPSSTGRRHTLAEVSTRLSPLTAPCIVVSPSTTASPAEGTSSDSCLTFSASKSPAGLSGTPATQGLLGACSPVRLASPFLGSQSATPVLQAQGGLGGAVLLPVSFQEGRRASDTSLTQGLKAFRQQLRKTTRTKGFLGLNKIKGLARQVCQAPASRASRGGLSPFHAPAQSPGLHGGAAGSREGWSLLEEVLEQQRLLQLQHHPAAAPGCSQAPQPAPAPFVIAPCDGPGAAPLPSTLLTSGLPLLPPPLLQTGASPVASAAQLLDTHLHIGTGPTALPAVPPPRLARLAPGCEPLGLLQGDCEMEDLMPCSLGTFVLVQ
# NEK2 (human), sequence (P51955 whole entry, looked up): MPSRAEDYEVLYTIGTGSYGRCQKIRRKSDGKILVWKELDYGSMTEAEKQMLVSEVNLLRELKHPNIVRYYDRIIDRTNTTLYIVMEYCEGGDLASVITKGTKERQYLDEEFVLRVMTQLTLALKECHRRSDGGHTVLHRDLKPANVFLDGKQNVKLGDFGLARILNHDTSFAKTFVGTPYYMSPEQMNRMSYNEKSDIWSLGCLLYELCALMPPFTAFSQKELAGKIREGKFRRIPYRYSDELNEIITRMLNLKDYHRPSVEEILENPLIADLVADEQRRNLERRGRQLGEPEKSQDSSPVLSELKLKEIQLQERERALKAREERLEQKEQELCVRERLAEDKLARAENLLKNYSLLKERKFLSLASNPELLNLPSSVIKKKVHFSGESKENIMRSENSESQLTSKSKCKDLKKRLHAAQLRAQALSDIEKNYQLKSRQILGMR
# PRKD1 (human), sequence (Q15139 whole entry, looked up): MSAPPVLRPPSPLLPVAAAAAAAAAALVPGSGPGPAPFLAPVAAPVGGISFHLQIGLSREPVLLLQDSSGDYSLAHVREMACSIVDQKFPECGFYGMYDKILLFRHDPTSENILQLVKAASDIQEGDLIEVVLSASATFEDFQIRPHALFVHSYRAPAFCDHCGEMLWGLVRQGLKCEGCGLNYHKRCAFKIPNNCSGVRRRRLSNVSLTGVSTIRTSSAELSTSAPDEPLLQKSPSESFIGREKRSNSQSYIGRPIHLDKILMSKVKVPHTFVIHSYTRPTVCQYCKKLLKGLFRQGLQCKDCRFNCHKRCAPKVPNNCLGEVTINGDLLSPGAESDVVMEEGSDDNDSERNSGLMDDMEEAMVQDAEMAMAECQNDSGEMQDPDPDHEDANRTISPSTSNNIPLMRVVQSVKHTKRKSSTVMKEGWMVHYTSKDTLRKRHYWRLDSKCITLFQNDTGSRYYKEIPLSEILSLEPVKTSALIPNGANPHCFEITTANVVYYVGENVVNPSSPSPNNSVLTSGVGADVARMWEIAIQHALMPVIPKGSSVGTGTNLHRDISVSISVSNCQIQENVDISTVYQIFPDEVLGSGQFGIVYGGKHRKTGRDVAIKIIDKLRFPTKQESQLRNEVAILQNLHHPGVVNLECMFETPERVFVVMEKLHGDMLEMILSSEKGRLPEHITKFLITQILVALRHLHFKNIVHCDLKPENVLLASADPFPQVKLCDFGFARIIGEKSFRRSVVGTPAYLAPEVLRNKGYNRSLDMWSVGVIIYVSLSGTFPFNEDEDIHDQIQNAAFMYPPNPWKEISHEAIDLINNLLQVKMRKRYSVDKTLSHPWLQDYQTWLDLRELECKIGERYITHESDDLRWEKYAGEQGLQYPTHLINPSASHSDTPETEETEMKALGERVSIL
# MAP2K3 (human), sequence (P46734 whole entry, looked up): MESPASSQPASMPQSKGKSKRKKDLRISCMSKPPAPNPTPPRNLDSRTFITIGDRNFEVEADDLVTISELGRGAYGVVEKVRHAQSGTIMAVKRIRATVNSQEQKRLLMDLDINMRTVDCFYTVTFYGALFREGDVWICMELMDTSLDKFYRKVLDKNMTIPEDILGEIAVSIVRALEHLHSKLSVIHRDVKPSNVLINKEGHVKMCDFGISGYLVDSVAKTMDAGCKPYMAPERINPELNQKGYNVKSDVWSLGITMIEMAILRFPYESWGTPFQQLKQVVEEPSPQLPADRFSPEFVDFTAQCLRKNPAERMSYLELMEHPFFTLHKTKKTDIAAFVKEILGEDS
smiles,measurement,setting,value
COc1cc(N2CCN(C)CC2)ccc1Nc1nc(N)c(C(=O)c2c(Cl)cccc2Cl)s1,"kinase still bound, per cent of control",ROS1 (human),11%
same,"kinase still bound, per cent of control",MKNK2 (human),77%
same,"kinase still bound, per cent of control",NEK2 (human),100%
same,"kinase still bound, per cent of control",PIM1 (human),100%
same,"kinase still bound, per cent of control",NTRK1 (human),62%
same,"kinase still bound, per cent of control",RIPK2 (human),70%
same,"kinase still bound, per cent of control",ROCK2 (human),88%
same,"kinase still bound, per cent of control",MARK3 (human),100%
same,"kinase still bound, per cent of control",AURKB (human),93%
same,"kinase still bound, per cent of control",PIK3CB (human),100%
same,"kinase still bound, per cent of control",CSK (human),90%
same,"kinase still bound, per cent of control",SIK1 (human),86%
same,"kinase still bound, per cent of control",PRKCD (human),68%
same,"kinase still bound, per cent of control",DCLK1 (human),3%
same,"kinase still bound, per cent of control",CDK19 (human),93%
same,"kinase still bound, per cent of control",FLT3 (human),96%
same,"kinase still bound, per cent of control",TTK (human),20%
same,"kinase still bound, per cent of control",INSRR (human),100%
same,"kinase still bound, per cent of control",MUSK (human),90%
same,"kinase still bound, per cent of control",MAP2K3 (human),79%
same,"kinase still bound, per cent of control",PIM2 (human),100%
same,"kinase still bound, per cent of control",MAPK1 (human),100%
same,"kinase still bound, per cent of control",MYLK2 (human),87%
same,"kinase still bound, per cent of control",FRK (human),43%
same,"kinase still bound, per cent of control",PAK6 (human),55%
same,"kinase still bound, per cent of control",AKT2 (human),100%
same,"kinase still bound, per cent of control",SRPK2 (human),100%
same,"kinase still bound, per cent of control",MAPKAPK2 (human),100%
same,"kinase still bound, per cent of control",KDR (human),97%
same,"kinase still bound, per cent of control",ULK2 (human),72%
same,"kinase still bound, per cent of control",PAK3 (human),94%
same,"kinase still bound, per cent of control",IKBKB (human),96%
same,"kinase still bound, per cent of control",MAPKAPK5 (human),100%
same,"kinase still bound, per cent of control",CAMK2G (human),17%
same,"kinase still bound, per cent of control",GSK3B (human),100%
same,"kinase still bound, per cent of control",MAPK4 (human),90%
same,"kinase still bound, per cent of control",LTK (human),4.2%
same,"kinase still bound, per cent of control",PRKD1 (human),44%
same,"kinase still bound, per cent of control",BMPR2 (human),82%
same,"kinase still bound, per cent of control",CSNK2A2 (human),88%
same,"kinase still bound, per cent of control",TAOK3 (human),12%
OCCCNc1cc(-c2ccnc(Nc3cccc(Cl)c3)n2)ccn1,"kinase still bound, per cent of control",ROS1 (human),100%
same,"kinase still bound, per cent of control",MKNK2 (human),100%
same,"kinase still bound, per cent of control",NEK2 (human),100%
same,"kinase still bound, per cent of control",PIM1 (human),100%
same,"kinase still bound, per cent of control",NTRK1 (human),100%
same,"kinase still bound, per cent of control",RIPK2 (human),100%
same,"kinase still bound, per cent of control",ROCK2 (human),100%
same,"kinase still bound, per cent of control",MARK3 (human),100%
same,"kinase still bound, per cent of control",AURKB (human),100%
same,"kinase still bound, per cent of control",PIK3CB (human),100%
same,"kinase still bound, per cent of control",CSK (human),100%
same,"kinase still bound, per cent of control",SIK1 (human),100%
same,"kinase still bound, per cent of control",PRKCD (human),100%
same,"kinase still bound, per cent of control",DCLK1 (human),100%
same,"kinase still bound, per cent of control",CDK19 (human),100%
same,"kinase still bound, per cent of control",FLT3 (human),100%
same,"kinase still bound, per cent of control",TTK (human),100%
same,"kinase still bound, per cent of control",INSRR (human),100%
same,"kinase still bound, per cent of control",MUSK (human),100%
same,"kinase still bound, per cent of control",MAP2K3 (human),100%
same,"kinase still bound, per cent of control",PIM2 (human),100%
same,"kinase still bound, per cent of control",MAPK1 (human),100%
same,"kinase still bound, per cent of control",MYLK2 (human),100%
same,"kinase still bound, per cent of control",FRK (human),100%
same,"kinase still bound, per cent of control",PAK6 (human),100%
same,"kinase still bound, per cent of control",AKT2 (human),100%
same,"kinase still bound, per cent of control",SRPK2 (human),100%
same,"kinase still bound, per cent of control",MAPKAPK2 (human),100%
same,"kinase still bound, per cent of control",KDR (human),100%
same,"kinase still bound, per cent of control",ULK2 (human),100%
same,"kinase still bound, per cent of control",PAK3 (human),100%
same,"kinase still bound, per cent of control",IKBKB (human),100%
same,"kinase still bound, per cent of control",MAPKAPK5 (human),100%
same,"kinase still bound, per cent of control",CAMK2G (human),100%
same,"kinase still bound, per cent of control",GSK3B (human),100%
same,"kinase still bound, per cent of control",MAPK4 (human),100%
same,"kinase still bound, per cent of control",LTK (human),100%
same,"kinase still bound, per cent of control",PRKD1 (human),100%
same,"kinase still bound, per cent of control",BMPR2 (human),100%
same,"kinase still bound, per cent of control",CSNK2A2 (human),100%
same,"kinase still bound, per cent of control",TAOK3 (human),100%
